By IC50 is commonly meant the point on the concentration scale where inhibition reaches its midpoint.

Drawing on patent US10821115B2, “Compounds that inhibit Mcl-1 protein” (priority 2017, dated 2020), this text covers IC50 for 16 compounds.

For experiment [1], the target named is recombinant human Mcl-1 (residues 171-327) / Bim interaction (Homo sapiens (Human), UniProt Q07820). Description: biochemical. It is filed as binding. To be noted: read-out: Mcl-1 HTRF IC50.
Experiment [2] concerns human multiple myeloma cell line, OPM-2. Description: Cell viability assay (OPM-2 10 FBS), CellTiter-Glo. It counts as cell-based. A digest of the protocol:
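IC50 values come from 4-parameter logistic fits of luminescence signals reflecting cell viability. Treatment lasted 16 h at 37 °C in complete medium with 10% FBS, starting from 3000 cells/well.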
For orientation: In ATP-based viability assays light output follows the ATP content of the culture.

Setting [3] is: 0.1 nM Mcl-1(171-327), 0.05 nM biotin-Bim (51-76).
[4] abbreviates: Homo sapiens, OPM-2, 16 h, read-out: OPM-2 10% FBS IC50 IP, OPM-2 cells, 10% FBS, 16 h incubation.
Setting [5] is: TR-FRET, Mcl-1(171-327) / biotin-Bim (51-76).
[6] abbreviates: Homo sapiens, OPM-2, 16 h, read-out: OPM-2 10% FBS IC50 IP, OPM-2 cells, 10% FBS, 16 h, CellTiter-Glo.
Where [7] appears, read: read-out: OPM-2 10% FBS IC50 IP, OPM-2 cells, 10% FBS, 16 h, CellTiter-Glo.

Like-named read-outs stand apart in the source and are kept apart here.

Chain of recombinant human Mcl-1 (residues 171-327) / Bim interaction (Q07820 171-327): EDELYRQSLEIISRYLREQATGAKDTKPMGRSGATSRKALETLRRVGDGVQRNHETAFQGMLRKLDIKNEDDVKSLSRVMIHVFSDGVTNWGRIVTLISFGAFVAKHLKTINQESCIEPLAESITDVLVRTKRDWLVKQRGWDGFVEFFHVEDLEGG

For `CO[C@@]1(CN2CCN(C3CS(=O)(=O)C3)CC2)/C=C/C[C@H](C)[C@@H](C)S(=O)(=O)NC(=O)c2ccc3c(c2)N(C[C@@H]2CC[C@H]21)C[C@@]1(CCCc2cc(Cl)ccc21)CO3` [Example 339, (1S,3′R,6′R,7′S,8′E,11′S,12′R)-6-chloro-7′-((4-(1,1-dioxido-3-thietanyl)-1-piperazinyl)methyl)-7′-methoxy-11′,12′-dimethyl-3,4-dihydro-2H,15′H-spiro[naphthalene-1,22′-[20]oxa[13]thia[1,14]diazatetracyclo [14.7.2.0~3,6~.0~19,24~]pentacosa[8,16,18,24]tetraen]-15′-one 13′,13′-dioxide], the values for the IC50 in experiment [1] (setting [3]) and in experiment [2] (setting [4]) were 0.117 nM and 153 nM, respectively.
The like results for `CO[C@@]1(CN2CCc3ncsc3C2)/C=C/C[C@H](C)[C@@H](C)S(=O)(=O)NC(=O)c2ccc3c(c2)N(C[C@@H]2CC[C@H]21)C[C@@]1(CCCc2cc(Cl)ccc21)CO3` [Example 209] were, in that order, 0.552 nM and 437 nM.
Consider `CO[C@@]1(c2cccnc2)/C=C/C[C@H](C)[C@@H](C)S(=O)(=O)NC(=O)c2ccc3c(c2)N(C[C@@H]2CC[C@H]21)C[C@@]1(CCCc2cc(Cl)ccc21)CO3` [Example 100391, (1S,3′R,6′R,7′S,8′E,11′S,12′R)-6-chloro-7′-methoxy-11′,12′-dimethyl-7′-(3-pyridinyl)-3,4-dihydro-2H,15′H-spiro[naphthalene-1,22′-[20]oxa[13]thia[1,14]diazatetracyclo [14.7.2.0~3,6~.0~19,24~]pentacosa[8,16,18,24]tetraen]-15′-one 13′,13′-dioxide], for which the IC50 in experiment [1] (setting [5]) is 0.441 nM; in experiment [2] (setting [6]) it was 282 nM.
For the compound `C[C@H](C(=O)O)[C@@]1(O)/C=C/C[C@H](C)[C@@H](C)S(=O)(=O)NC(=O)c2ccc3c(c2)N(C[C@@H]2CC[C@H]21)C[C@@]1(CCCc2cc(Cl)ccc21)CO3` (single isomer, unassigned) [Example 100122], the IC50 is 0.098 nM in experiment [1] (setting [5]) and 1190 nM in experiment [2] (setting [7]).
Consider `CO[C@@]1(CS(=O)(=O)C(C)C)/C=C/C[C@H](C)[C@@H](C)S(=O)(=O)NC(=O)c2ccc3c(c2)N(C[C@@H]2CC[C@H]21)C[C@@]1(CCCc2cc(Cl)ccc21)CO3` (stereo in doubt) [Example 100315, (1S,3′R,6′R,7′S,8′E,11′S,12′R)-6-chloro-7′-methoxy-11′,12′-dimethyl-7′-((2-propanylsulfonyl)methyl)-3,4-dihydro-2H,15′H-spiro[naphthalene-1,22′-[20]oxa[13]thia[1,14]diazatetracyclo [147.2.0~3,6~.0~19,24~]pentacosa[8,16,18,24]tetraen]-15′-one 13′,13′-dioxide], for which the IC50 in experiment [1] (setting [5]) turned out to be 0.2 nM; in experiment [2] (setting [7]), 153 nM.
With `COCC[C@@H]1[C@@H](C)C/C=C/[C@](CN2CCN(C(C)C)CC2)(OC)[C@@H]2CC[C@H]2CN2C[C@@]3(CCCc4cc(Cl)ccc43)COc3ccc(nc32)C(=O)NS1(=O)=O` [Example 24, (1S,3′R,6′R,7′S,8′E,11′S,12′R)-6-chloro-7′-methoxy-12′-(2-methoxyethyl)-11′-methyl-7′-((4-(1-methylethyl)-1-piperazinyl)methyl)-3,4-dihydro-2H,15′H-spiro[naphthalene-1,22′-[20]oxa[13]thia[1,14,25]triazatetracyclo [14.7.2.0~3,6~.0~19,24~]pentacosa[8,16,18,24]tetraen]-15′-one 13′,13′-dioxide], the results for the IC50 in experiment [1] (setting [3]) and in experiment [2] (setting [4]) were 0.086 nM and 35 nM, respectively.
For `C=CC(=O)N1CCN2CCN(C[C@]3(OC)/C=C/C[C@H](C)[C@@H](C)S(=O)(=O)NC(=O)c4ccc5c(c4)N(C[C@@H]4CC[C@H]43)C[C@@]3(CCCc4cc(Cl)ccc43)CO5)C[C@H]2C1` [Example 234], the IC50 amounted to 0.163 nM in experiment [1] (setting [3]) and 71 nM in experiment [2] (read-out: OPM-2 10% FBS IC50 IP, OPM-2 cells, 10% FBS, 16 h incubation).
Turning to `CO[C@]1(CN2CCN3CCCC[C@@H]3C2)/C=C/C[C@H](C)[C@@H](CC2CCC2)S(=O)(=O)NC(=O)c2ccc3c(c2)N(C[C@@H]2CC[C@H]21)C[C@@]1(CCCc2cc(Cl)ccc21)CO3` [Example 40, (1S,3′R,6′R,7′R,8′E,11′S,12′R)-6-chloro-12′-(cyclobutylmethyl)-7′-methoxy-11′-methyl-7′-((9aR)-octahydro-2H-pyrido[1,2-a]pyrazin-2-ylmethyl)-3,4-dihydro-2H,15′H-spiro[naphthalene-1,22′-[20]oxa[13]thia[1,14]diazatetracyclo [14.7.2.0~3,6~.0~19,24~]pentacosa[8,16,18,24]tetraen]-15′-one 13′,13′-dioxide], the results for the IC50 in experiment [1] (setting [3]) and in experiment [2] (setting [4]) were 0.444 nM and 571 nM, respectively.
Turning to `CO[C@@]1(CN2CCN3C(=O)OC[C@@H]3C2)/C=C/C[C@H](C)[C@@H](C)S(=O)(=O)NC(=O)c2ccc3c(c2)N(C[C@@H]2CC[C@H]21)C[C@@]1(CCCc2cc(Cl)ccc21)CO3` [Example 63, (1S,3′R,6′R,7′S,8′E,11′S,12′R)-6-chloro-7′-methoxy-11′,12′-dimethyl-7′-(((8aS)-3-oxotetrahydro[1,3]oxazolo[3,4-a]pyrazin-7(1H)-yl)methyl)-3,4-dihydro-2H,15′H-spiro[naphthalene-1,22′-[20]oxa[13]thia[1,14]diazatetracyclo [14.7.2.0~3,6~.0~19,24~]pentacosa[8,16,18,24]tetraen]-15′-one 13′,13′-dioxide], the results for the IC50 in experiment [1] (setting [3]) and in experiment [2] (setting [4]) were 0.173 nM and 582 nM, respectively.
As for `CO[C@@]1(CN2CCN(C3CN(C(C)=O)C3)CC2)/C=C/C[C@H](C)[C@@H](C)S(=O)(=O)NC(=O)c2ccc3c(c2)N(C[C@@H]2CC[C@H]21)C[C@@]1(CCCc2cc(Cl)ccc21)CO3` [Example 280, (1S,3′R,6′R,7′S,8′E,11′S,12′R)-7′-((4-(1-acetyl-3-azetidinyl)-1-piperazinyl)methyl)-6-chloro-7′-methoxy-11′,12′-dimethyl-3,4-dihydro-2H,15′H-spiro[naphthalene-1,22′-[20]oxa[13]thia[1,14]diazatetracyclo [14.7.2.0~3,6~.0~19,24~]pentacosa[8,16,18,24]tetraen]-15′-one 13′,13′-dioxide], the values for the IC50 in experiment [1] (setting [3]) and in experiment [2] (setting [4]) were 0.052 nM and 73 nM, respectively.
Turning to `CO[C@@]1(CN2CC3(C2)CN(C(=O)OC(C)(C)C)C3)/C=C/C[C@H](C)[C@@H](C)S(=O)(=O)NC(=O)c2ccc3c(c2)N(C[C@@H]2CC[C@H]21)C[C@@]1(CCCc2cc(Cl)ccc21)CO3` [Example 204, tert-butyl 6-(((1S,3′R,6′R,7′S,8′E,11′S, 12′R)-6-chloro-7′-methoxy-11′,12′-dimethyl-13′,13′-dioxido-15′-oxo-3,4-dihydro-2H-spiro[naphthalene-1,22′-[20]oxa[13]thia[1,14]diazatetracyclo [14.7.2.0~3,6~.0~19,24~]pentacosa[8,16,18,24]tetraen]-7′-yl)methyl)-2,6-diazaspiro[3.3]heptane-2-carboxylate], the IC50 worked out at 0.23 nM in experiment [1] (setting [3]) and 319 nM in experiment [2] (setting [4]).
With `C[C@@H]1[C@@H](C)C/C=C/[C@@](O)(CC#N)[C@@H]2CC[C@H]2CN2C[C@@]3(CCCc4cc(Cl)ccc43)COc3ccc(cc32)C(=O)NS1(=O)=O` [Example 100050, ((1S,3′R,6′R,7′S,8′E,11′S,12′R)-6-chloro-7′-hydroxy-11′,12′-dimethyl-13′,13′-dioxido-15′-oxo-3,4-dihydro-2H-spiro[naphthalene-1,22′-[20]oxa[13]thia[1,14]diazatetracyclo [14.7.2.0~3,6~.0~19,24~]pentacosa[8,16,18,24]tetraen]-7′-yl)acetonitrile], the IC50 in experiment [1] was 1.28 nM; in experiment [2] (setting [7]) it was 3820 nM.
Consider `CNC(=O)C[C@@]1(O)CCC[C@H](C)[C@@H](C)S(=O)(=O)NC(=O)c2ccc3c(c2)N(C[C@@H]2CC[C@H]21)C[C@@]1(CCCc2cc(Cl)ccc21)CO3` (single isomer, unassigned) [Example 100103], for which the IC50 is 0.325 nM in experiment [1] (setting [5]) and 778 nM in experiment [2] (setting [6]).
For `C[C@@H]1[C@@H](C)C/C=C/[C@@](O)(C#CCO)[C@@H]2CC[C@H]2CN2C[C@@]3(CCCc4cc(Cl)ccc43)COc3ccc(cc32)C(=O)NS1(=O)=O` [Example 100394, (1S,3′R,6′R,7′S,8′E,11′S,12′R)-6-chloro-7′-hydroxy-7′-(3-hydroxy-1-propyn-1-yl)-11′,12′-dimethyl-3,4-dihydro-2H,15′H-spiro[naphthalene-1,22′-[20]oxa[13]thia[1,14]diazatetracyclo [14.7.2.0~3,6~.0~19,24~]pentacosa[8,16,18,24]tetraen]-15′-one 13′,13′-dioxide], the IC50 is 0.242 nM in experiment [1] (setting [5]) and 622 nM in experiment [2] (setting [7]).
As to `COCCCN1CCN(C[C@]2(OC)/C=C/C[C@H](C)[C@@H](C)S(=O)(=O)NC(=O)c3ccc4c(c3)N(C[C@@H]3CC[C@H]32)C[C@@]2(CCCc3cc(Cl)ccc32)CO4)CC1` [Example 302, (1S,3′R,6′R,7′S,8′E,11′S,12′R)-6-chloro-7′-methoxy-7′-((4-(3-methoxypropyl)-1-piperazinyl)methyl)-11′,12′-dimethyl-3,4-dihydro-2H,15′H-spiro[naphthalene-1,22′-[20]oxa[13]thia[1,14]diazatetracyclo [14.7.2.0~3,6~.0~19,24~]pentacosa[8,16,18,24]tetraen]-15′-one 13′,13′-dioxide], the IC50 in experiment [1] (setting [3]) stood at 0.107 nM; in experiment [2] (setting [4]) it was 84 nM.
Consider `C[C@@H]1[C@@H](C)C/C=C/[C@@](O)(C#CCN2CCOCC2)[C@@H]2CC[C@H]2CN2C[C@@]3(CCCc4cc(Cl)ccc43)COc3ccc(cc32)C(=O)NS1(=O)=O` (single isomer, unassigned) [Example 100018], for which the IC50 is 0.061 nM in experiment [1] (setting [5]) and 49 nM in experiment [2] (setting [7]).
